Measured values from patent US11564913B2, “Compositions and methods for treating cancer” (Children's Hospital Medical Center, priority 2019, dated 2023).

Assays:
[1] = tested on: p190-BCR-ABL leukemic propagating cells; assay: Serial transplantation into secondary recipients (leukemic propagating activity); type: in vivo, mice; settings: week 5 post transplantation
From the text: LDBM cells were transduced with bicistronic p190-BCR-ABL1/EGFP retrovirus and transplanted into recipient mice. After initial assessment of leukemic burden, drugs were delivered in subcutaneously implanted osmotic pumps, each lasting two weeks. (D) Kaplan-Meier survival plot of secondary mice transplants with the 10^6-cell dilution.
(F) Count (%) of residual leukemic (EGFP^+-BCR-ABL1) cells in peripheral blood at weeks 3 and 5 for the secondary transplant mice from FIG. 1D. (G) Kaplan-Meier survival plot of secondary mice transplants with the 0.3×10^6 cell-dilution. (H) Count (%) of residual leukemic (EGFP^+-BCR-ABL1) cells in peripheral blood at weeks 3 and 5 for the secondary transplant mice from (G). (I & J) similar to G & H but with the 0.1×10^6 cell-dilution.

[2] = tested on: Vav3−/− leukemic cells expressing full-length Vav3; assay: Vav3 rescue, colony formation assay; type: cell-based, murine; settings: 10 μM; 200 with vehicle
From the text: FIG. 15: Expression of transgenic Vav3 re-sensitizes Vav3-deficient cells to IODVA1. (A) Vav3 domain structure, calponin-homology (CH), acidic region (Ac), Dbl-homology (DH), pleckstrin-homology (PH), zinc finger (ZF), Src-homology 2 and 3 (SH2/SH3). (B) Representative histogram data of the cell cycle analysis of wild-type (Vav3^+/+) and Vav3-deficient (Vav3^−/−) p190-BCR-ABL1 leukemic bone marrow cells expressing empty vector, full-length Vav3 or ΔCH mutant and treated with vehicle control (black) or IODVA1 at 5 (red) or 10 μM (dark grey) for 18 h. (C) Quantification of the average number of colonies made by bone marrow wild-type and Vav3^−/− p190-BCR-ABL1 leukemic bone marrow cells expressing empty vector, full-length Vav3 or ΔCH mutant and treated with vehicle control (black) or IODVA1 at 1 (light salmon), 5 (red) and 10 μM (dark grey). *** p≤0.001. […]
For Vav3 rescue experiments, low density bone marrow cells from wild-type ([…]) or Vav3^−/− mice were transduced with bicistronic retroviral vector encoding p190 BCR-ABL1-IRES-YFP (yellow fluorescent protein) and YFP^+ cells were sorted 48 h post-transduction. […] Cell cycle was analyzed at 18 h post BrdU incorporation. […]

[3] = tested on: active RhoA in MDA-MB-231 cells; assay: Active GTPase pull-down (GST-Rhotekin RBD); type: cell-based, human; settings: 0-3 μM, 1 h
Protocol: FIG. 5: Cytoskeletal changes induced by IODVA1 treatment. IODVA1 inhibits lamellipodia and circular dorsal ruffle (CDR) formation in MDA-MB-231 cells and decreases Rac activation. (A) IODVA1 inhibits EGF-induced lamellipodia formation in MDA-MB-231 cells. MDA-MB-231 cells were plated on fibronectin-coated coverslips, serum starved for 4 h, incubated with the indicated concentrations of IODVA1 for 1 h, then EGF (50 ng/mL) stimulated, fixed and stained with Phalloidin Alexa Fluor 594 (F-Actin, pseudocolored red) and DAPI (nuclei, pseudocolored blue). […] The percentage of cells with CDRs was counted as the number of cells with CDRs normalized to the total number of cells in the field. Around 150 cells were counted per condition per experiment. Cells with multiple CDRs were counted only once. […] Levels of active Rac (RacGTP, % of control), active Cdc42 (Cdc42GTP, % of control) and active RhoA (RhoAGTP, % of control) were quantified using ImageJ and ImageLab and show combined data as mean±s.e.m. from at least 3 independent experiments. […]
To confirm that IODVA1 interferes with Rac activation, applicants checked the levels of active Rac and its downstream effector PAK1/2. MDA-MB-231 cells were incubated with IODVA1 (0-3 μM) for 1 h and levels of GTP-bound active Rac were measured by GST-PAK-GBD pull-downs and quantified (FIG. 5C). […]

With `OC1(c2ccccn2)N=C(Nc2nc3ccccc3[nH]2)N=C1c1ccccn1` (stereo not drawn) [IODVA1, (Z)-2-((1H-benzo[d]imidazol-2-yl)imino)-4,5-di(pyridin-2-yl)-2,5-dihydro-1H-imidazol-5-ol] the “eradication of leukemic cell burden in peripheral blood of secondary transplanted mice” value [1] was “superior to imatinib”, the number of colonies [2] was 75 colonies and the “levels of active RhoA” value [3] was “not affected”.
